Values joined by “and” are separate entries in the source; they are usually repeats but may differ in a detail not shown here. Equal values may be shown once. Toxic doses and inconclusive results are not listed.
Test system: L1210 leukemia ip in BDF1 mice, survival T/C
Assay: NCI In Vivo Anticancer Drug Screen. Data for tumor model L1210 Leukemia (intraperitoneal) in B6D2F1 (BDF1) mice
Settings: endpoint: mean survival time, higher = longer survival
Summary of the method: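 Antitumor effect is assessed in tumor-bearing animals. Survival in the compound arm is compared with a vehicle-dosed control arm and expressed as their quotient.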

## O=C1N[C@@H]([C@H]2CC[C@H](Cl)CN2)C(=O)N[C@H]1[C@H]1CC[C@H](Cl)CN1
dose: 0.05 mg/kg/injection, schedule: Q01DX009 (ip), vehicle: saline
  T/C: 98 % of control and 109 % of control
dose: 0.1 mg/kg/injection, schedule: Q01DX009 (ip), vehicle: saline
  T/C: 104 % of control and 113 % of control
dose: 0.2 mg/kg/injection, schedule: Q01DX009 (ip), vehicle: saline
  T/C: 104 % of control and 124 % of control
dose: 0.25 mg/kg/injection, schedule: Q03HX008 (ip), vehicle: saline
  T/C: 117 % of control
dose: 0.25 mg/kg/injection, schedule: Q03HX016 (ip), vehicle: saline
  T/C: 121 % of control
dose: 0.39 mg/kg/injection, schedule: Q01DX009 (ip), vehicle: water
  T/C: 104 % of control
dose: 0.4 mg/kg/injection, schedule: Q01DX009 (ip), vehicle: saline
  T/C: 107 % of control
dose: 0.5 mg/kg/injection, schedule: Q01DX009 (ip), vehicle: saline
  T/C: 150 % of control
dose: 0.5 mg/kg/injection, schedule: Q03HX016 (ip), vehicle: saline
  T/C: 158 % of control
dose: 0.78 mg/kg/injection, schedule: Q01DX009 (ip), vehicle: water
  T/C: 120 % of control
dose: 0.8 mg/kg/injection, schedule: Q01DX009 (ip), vehicle: saline
  T/C: 190 % of control
dose: 1.0 mg/kg/injection, schedule: Q01DX001 (ip), vehicle: other
  T/C: 103 % of control
dose: 1.0 mg/kg/injection, schedule: Q01DX001 (ip), vehicle: saline
  T/C: 173 % of control
dose: 1.0 mg/kg/injection, schedule: Q01DX009 (ip), vehicle: saline
  T/C: 161 % of control and 186 % of control
dose: 1.0 mg/kg/injection, schedule: Q01DX009 (ip), vehicle: water
  T/C: 108 % of control
dose: 1.0 mg/kg/injection, schedule: Q01DX009 (sc), vehicle: saline
  T/C: 161 % of control
dose: 1.0 mg/kg/injection, schedule: Q03HX008 (ip), vehicle: saline
  T/C: 165 % of control
dose: 1.0 mg/kg/injection, schedule: Q03HX016 (ip), vehicle: saline
  T/C: 280 % of control
dose: 1.1 mg/kg/injection, schedule: Q01DX009 (ip), vehicle: saline
  T/C: 246 % of control
dose: 1.25 mg/kg/injection, schedule: Q01DX001 (ip), vehicle: saline
  T/C: 116 % of control and 122 % of control
dose: 1.3 mg/kg/injection, schedule: Q01DX009 (ip), vehicle: saline
  T/C: 159 % of control
dose: 1.5 mg/kg/injection, schedule: Q01DX009 (ip), vehicle: saline
  T/C: 171 % of control and 189 % of control
dose: 1.56 mg/kg/injection, schedule: Q01DX009 (ip), vehicle: water
  T/C: 160 % of control
dose: 1.8 mg/kg/injection, schedule: Q01DX009 (ip), vehicle: saline
  T/C: 255 % of control
dose: 2.0 mg/kg/injection, schedule: Q01DX001 (ip), vehicle: none
  T/C: 120 % of control
dose: 2.0 mg/kg/injection, schedule: Q01DX001 (ip), vehicle: other
  T/C: 124 % of control
dose: 2.0 mg/kg/injection, schedule: Q01DX001 (sc), vehicle: saline
  T/C: 114 % of control
dose: 2.0 mg/kg/injection, schedule: Q01DX009 (ip), vehicle: saline
  T/C: 206 % of control and 290 % of control and 306 % of control
dose: 2.0 mg/kg/injection, schedule: Q01DX009 (ip), vehicle: water
  T/C: 119 % of control
dose: 2.0 mg/kg/injection, schedule: Q01DX009 (oral), vehicle: saline
  T/C: 173 % of control
dose: 2.0 mg/kg/injection, schedule: Q01DX009 (sc), vehicle: saline
  T/C: 201 % of control
dose: 2.0 mg/kg/injection, schedule: Q03HX008 (ip), vehicle: saline
  T/C: 430 % of control
dose: 2.0 mg/kg/injection, schedule: Q03HX016 (ip), vehicle: saline
  T/C: 207 % of control
dose: 2.0 mg/kg/injection, schedule: Q04DX003 (ip), vehicle: saline
  T/C: 172 % of control
dose: 2.0 mg/kg/injection, schedule: Q08DX002 (ip), vehicle: saline
  T/C: 155 % of control
dose: 2.2 mg/kg/injection, schedule: Q01DX009 (ip), vehicle: saline
  T/C: 210 % of control and 297 % of control
dose: 2.6 mg/kg/injection, schedule: Q01DX009 (ip), vehicle: saline
  T/C: 206 % of control and 470 % of control
dose: 3.0 mg/kg/injection, schedule: Q01DX009 (ip), vehicle: saline
  T/C: 229 % of control
dose: 3.13 mg/kg/injection, schedule: Q01DX009 (ip), vehicle: water
  T/C: 213 % of control
dose: 4.0 mg/kg/injection, schedule: Q01DX001 (oral), vehicle: saline
  T/C: 176 % of control
dose: 4.0 mg/kg/injection, schedule: Q01DX009 (oral), vehicle: saline
  T/C: 86 % of control
dose: 4.0 mg/kg/injection, schedule: Q04DX003 (ip), vehicle: saline
  T/C: 208 % of control
dose: 4.0 mg/kg/injection, schedule: Q08DX002 (ip), vehicle: saline
  T/C: 213 % of control
dose: 5.0 mg/kg/injection, schedule: Q01DX001 (ip), vehicle: saline
  T/C: 165 % of control and 170 % of control
dose: 5.0 mg/kg/injection, schedule: Q01DX001 (ip), vehicle: water
  T/C: 222 % of control
dose: 6.25 mg/kg/injection, schedule: Q01DX009 (ip), vehicle: water
  T/C: 97 % of control
dose: 6.5 mg/kg/injection, schedule: Q01DX001 (ip), vehicle: saline
  T/C: 273 % of control and 327 % of control
dose: 6.7 mg/kg/injection, schedule: Q01DX001 (ip), vehicle: saline
  T/C: 257 % of control
dose: 8.0 mg/kg/injection, schedule: Q01DX001 (ip), vehicle: none
  T/C: 207 % of control
dose: 8.0 mg/kg/injection, schedule: Q01DX001 (ip), vehicle: other
  T/C: 316 % of control
dose: 8.0 mg/kg/injection, schedule: Q01DX001 (oral), vehicle: saline
  T/C: 240 % of control
dose: 8.0 mg/kg/injection, schedule: Q01DX001 (sc), vehicle: saline
  T/C: 150 % of control
dose: 8.0 mg/kg/injection, schedule: Q01DX009 (ip), vehicle: water
  T/C: 279 % of control
dose: 8.0 mg/kg/injection, schedule: Q04DX003 (ip), vehicle: saline
  T/C: 103 % of control
dose: 9.1 mg/kg/injection, schedule: Q01DX009 (ip), vehicle: saline
  T/C: 86 % of control
dose: 9.7 mg/kg/injection, schedule: Q01DX001 (ip), vehicle: saline
  T/C: 151 % of control and 254 % of control
dose: 10.0 mg/kg/injection, schedule: Q01DX001 (ip), vehicle: water
  T/C: 278 % of control
dose: 11.6 mg/kg/injection, schedule: Q01DX001 (ip), vehicle: saline
  T/C: 234 % of control and 314 % of control
dose: 16.0 mg/kg/injection, schedule: Q01DX001 (ip), vehicle: none
  T/C: 155 % of control
dose: 16.0 mg/kg/injection, schedule: Q01DX001 (ip), vehicle: other
  T/C: 279 % of control
dose: 16.0 mg/kg/injection, schedule: Q01DX001 (oral), vehicle: saline
  T/C: 223 % of control
dose: 16.0 mg/kg/injection, schedule: Q01DX009 (ip), vehicle: water
  T/C: 383 % of control
dose: 16.0 mg/kg/injection, schedule: Q08DX002 (ip), vehicle: saline
  T/C: 90 % of control
dose: 32.0 mg/kg/injection, schedule: Q01DX001 (ip), vehicle: none
  T/C: 64 % of control
dose: 200.0 mg/kg/injection, schedule: Q01DX001 (ip), vehicle: water
  T/C: 115 % of control
dose: 400.0 mg/kg/injection, schedule: Q01DX001 (ip), vehicle: water
  T/C: 199 % of control
dose: 800.0 mg/kg/injection, schedule: Q01DX001 (ip), vehicle: water
  T/C: 158 % of control
dose: 125.0 micrograms/kg/injection, schedule: Q03HX024 (ip), vehicle: saline
  T/C: 121 % of control
dose: 500.0 micrograms/kg/injection, schedule: Q03HX024 (ip), vehicle: saline
  T/C: 165 % of control
dose: 1000.0 micrograms/kg/injection, schedule: Q03HX024 (ip), vehicle: saline
  T/C: 211 % of control

## NS(=O)(=O)c1ccc(NC(=O)Nc2ccccc2)cc1
dose: 100.0 mg/kg/injection, schedule: Q01DX009 (ip), vehicle: Klucel (hydroxypropylcellulose) (HPC)
  T/C: 92 % of control
dose: 200.0 mg/kg/injection, schedule: Q01DX009 (ip), vehicle: Klucel (hydroxypropylcellulose) (HPC)
  T/C: 97 % of control

## O=C(CCN(Cc1ccccc1)Cc1ccccc1)c1csc2ccccc12
dose: 100.0 mg/kg/injection, schedule: Q01DX001 (ip), vehicle: carboxymethylcellulose (CMC)
  T/C: 96 % of control
dose: 200.0 mg/kg/injection, schedule: Q01DX001 (ip), vehicle: carboxymethylcellulose (CMC)
  T/C: 89 % of control
dose: 400.0 mg/kg/injection, schedule: Q01DX001 (ip), vehicle: carboxymethylcellulose (CMC)
  T/C: 94 % of control
